Test [1] is described as follows: Antimicrobial (antibiotic) activity, graded relative to FLO. It is filed as cell-based. To be noted: antimicrobial activity compared with FLO. Further details: key: +++: higher activity than FLO; ++: equivalent activity of FLO; +: lower activity than FLO; −: no activity observed. The source says: (§1) More information regarding the detailed description of the invention (e.g. material & methods, experimental results) can be found in international patent application PCT/CH03/00568 which is incorporated by reference.

A short description of test [2]: Coagulating activity (coagulation agents for water treatment), graded relative to FLO. As to conditions: coagulating activity compared with FLO. Further details: key: +++: higher activity than FLO; ++: equivalent activity of FLO; +: lower activity than FLO; −: no activity observed.
Excerpt: as §1

Take AVQLTHQQQGQV [P2c, derivative of FLO]: in test [1], the antlbt. result was “−”. Further, in test [2], the Coag. entry is given as “−”.
Consider “GQVGPQQVRQMYRVASNIPST [P3, derivative of FLO]”, for which the antlbt. result in test [1] is reported as “−”. In addition, the Coag. result in test [2] is recorded as “−”.
Regarding PQRCPSLRQAV [P2a, derivative of FLO], the antlbt. result in test [1] is listed as “−”. The Coag. entry in test [2] is “−”.
“PQRCPSLRQAVQLTHQ [P2ab, derivative of FLO]”: the Coag. entry in test [2] is reported as “++”.
For “PQRCPSLRQAVQLTHQQQGQV [P2, derivative of FLO]”, the antlbt. result in test [1] was “+”. Also, in test [2], the Coag. entry is “++”.
For “PQRCPSLRQAVQLTHQQQRQV [P2GR40, derivative of FLO]” the same measures were “++” and “+++”.
Take “QGPGRQPDFQRCGQQLRNISPP [P1, derivative of FLO]”: the Coag. entry in test [2] is on record as “−”.
As for “QGPGRQPDFQRCGQQLRNISPPQRCPSLRQAVQLTHQQQGQVGPQQRQMYRVASNIPST [Flo, protein called FLO, disclosed in WO 03/008441 A2; coagulation and antimicrobial agent, reference compound]”, the antlbt. result in test [1] is on record as “++”. In test [2], the Coag. result was “++”.
Regarding “RCGQQLRNISPPQRCPSLRQAVQLTHQQQGQ [P2.1, derivative of FLO]”, in test [2], the Coag. entry is on record as “−”.
For the sequence SLRQAVQLTHQ [P2b, derivative of FLO], the antlbt. result in test [1] is recorded as “−”. For the same sequence, the Coag. result in test [2] is listed as “−”.

Source of the values: patent publication US20070099838A1, “Plant-derived peptides harboring water-cleaning and antimicrobial activities” (OPTIMA ENVIRONNEMENT S.A., priority 2003, published 2007).
